Our source for the IC50 and inhibition values is ChEMBL document CHEMBL5226338, “Molecular hybrids: A five-year survey on structures of multiple targeted hybrids of protein kinase inhibitors for cancer therapy” (Eur J Med Chem, 2021).

pIC50: −log10 of the molar value.

The target of experiment [1] is Vascular endothelial growth factor receptor 2 (Homo sapiens, UniProt P35968). The experiment can be described thus: Inhibition of human VEGFR2 using TMB as substrate by ELISA. For orientation: An ELISA detects its analyte on a solid surface through an enzyme-linked reagent.
In experiment [2] the target is Tubulin beta (Homo sapiens) (UniProt P68371+Q9H4B7+Q13509+P04350+Q3ZCM7+P07437+Q13885+Q9BVA1+Q9BUF5+A6NNZ2). In words: Inhibition of beta-tubulin polymerization in human HepG2 cells using TMB substrate by spectrophotometry analysis relative to control. The format is cell-based. As to conditions: concentration not given here.
In experiment [3] the target is T1, Epidermal growth factor receptor (Homo sapiens, UniProt P00533). In words: Inhibition of GST-fused EGFR (unknown origin) in presence of ATP by microplate reader analysis.
The target in experiment [4] is Tubulin beta. In words: Inhibition of beta-tubulin polymerization in human HCT-116 cells using TMB substrate by ELISA. The format is cell-based.
The target in experiment [5] is T1, Epidermal growth factor receptor. The experiment can be described thus: Inhibition of EGFR (unknown origin).
The target of experiment [6] is T2, Protein deacetylase HDAC6 (Homo sapiens, UniProt Q9UBN7).
T2 sequence (Q9UBN7 whole entry): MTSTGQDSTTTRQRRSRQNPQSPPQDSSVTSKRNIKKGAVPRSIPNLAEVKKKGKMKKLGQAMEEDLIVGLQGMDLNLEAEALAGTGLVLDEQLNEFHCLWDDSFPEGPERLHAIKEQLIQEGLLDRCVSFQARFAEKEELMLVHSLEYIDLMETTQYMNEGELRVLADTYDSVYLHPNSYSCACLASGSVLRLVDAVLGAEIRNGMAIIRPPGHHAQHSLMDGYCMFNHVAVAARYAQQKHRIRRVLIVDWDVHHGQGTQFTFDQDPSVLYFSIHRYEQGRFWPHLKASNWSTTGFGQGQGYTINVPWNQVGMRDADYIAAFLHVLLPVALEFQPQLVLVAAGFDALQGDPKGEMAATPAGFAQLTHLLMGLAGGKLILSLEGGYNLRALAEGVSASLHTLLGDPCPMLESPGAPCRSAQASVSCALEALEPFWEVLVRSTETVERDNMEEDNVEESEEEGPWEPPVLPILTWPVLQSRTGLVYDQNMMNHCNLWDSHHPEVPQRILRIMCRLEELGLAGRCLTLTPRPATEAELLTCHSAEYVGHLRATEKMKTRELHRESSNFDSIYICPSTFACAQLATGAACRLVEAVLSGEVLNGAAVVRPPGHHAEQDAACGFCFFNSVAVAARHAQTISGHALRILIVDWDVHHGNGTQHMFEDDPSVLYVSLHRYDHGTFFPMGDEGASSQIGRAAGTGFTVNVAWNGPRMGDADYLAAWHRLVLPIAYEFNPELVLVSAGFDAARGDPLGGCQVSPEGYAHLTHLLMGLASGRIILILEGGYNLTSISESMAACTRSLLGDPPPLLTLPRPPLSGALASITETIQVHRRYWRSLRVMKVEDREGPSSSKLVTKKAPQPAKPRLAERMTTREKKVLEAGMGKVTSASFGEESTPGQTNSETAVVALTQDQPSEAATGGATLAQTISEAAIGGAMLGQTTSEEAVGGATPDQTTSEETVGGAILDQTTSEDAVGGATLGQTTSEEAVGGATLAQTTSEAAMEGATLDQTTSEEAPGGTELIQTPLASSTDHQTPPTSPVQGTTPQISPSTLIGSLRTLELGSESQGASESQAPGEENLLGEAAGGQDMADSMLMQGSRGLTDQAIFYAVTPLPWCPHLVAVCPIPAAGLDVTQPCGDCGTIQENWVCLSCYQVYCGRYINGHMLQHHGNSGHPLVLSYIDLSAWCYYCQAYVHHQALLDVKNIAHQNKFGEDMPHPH
In words: Inhibition of HDAC6 (unknown origin).

In experiment [7] the target is Tyrosine-protein kinase JAK2 (Homo sapiens, UniProt O60674). In words: Inhibition of JAK2 (unknown origin).
Experiment [8] is described as follows: Inhibition of sheep brain tubulin polymerization by DAPI staining based fluorescence analysis. It is filed as tissue-based, Ovis aries.
In experiment [9] the target is [Pyruvate dehydrogenase (acetyl-transferring)] kinase isozyme 1, mitochondrial (Homo sapiens, UniProt Q15118). In words: Inhibition of human recombinant PDHK1 using KKKYHGHSMSDPGVSYRT as substrate incubated for 40 mins in presence of Mg/ATP mix by [gamma-32P]-ATP based scintillation counting analysis.
Experiment [10] addresses Tubulin beta. The experiment can be described thus: Inhibition of beta-tubulin polymerization (unknown origin) by ELISA. The format is protein assay, Homo sapiens.
Experiment [11] can be described thus: Cytotoxicity against human U87 cells. It is filed as functional, cell-based, U-87MG ATCC. The note with it: U-87 MG.
A further experiment deals with Histone deacetylase 1 (Homo sapiens, UniProt Q13547). The experiment can be described thus: Inhibition of HDAC1 (unknown origin).
Another experiment deals with A-431. In words: Cytotoxicity against human A-431 cells. The format is functional, cell-based.
Another experiment has as its system NCI-H1975. In words: Cytotoxicity against human NCI-H1975 cells. It is filed as functional, cell-based.
Experiment [12] has as its target T1, Epidermal growth factor receptor. The experiment can be described thus: Inhibition of EGFR (unknown origin) phosphorylation using kit-tyr4 peptide as substrate incubated for 1 hr in presence of ATP by UV-Vis spectrophotometer.
For another experiment, the system named is A549. The experiment can be described thus: Antiproliferative activity against human A549 cells assessed as inhibition of cell growth incubated for 48 hrs by MTT assay. It is filed as functional, cell-based. As to conditions: A549, 48 h.
The target of experiment [13] is DNA topoisomerase 2-alpha (Homo sapiens, UniProt P11388). The experiment can be described thus: Inhibition of human topoisomerase 2 alpha assessed as relaxation of supercoiled plasmid pBR322 DNA incubated for 30 mins by ethidium bromide staining based agarose gel electrophoresis.
Experiment [14] in a line: Inhibition of tyrosine kinase in human CAPAN-1 cells. It is filed as cell-based.
A short description of experiment [15]: Inhibition of tyrosine kinase in human PANC-1 cells. It is filed as cell-based.
A further experiment has as its system T-24. In words: Antiproliferative activity against human T24 cells assessed as inhibition of cell growth incubated for 24 to 72 hrs by MTT assay. It is filed as functional, cell-based. For orientation: Formazan colour is commonly taken as a measure of viable cells.
The test system of the next experiment is PANC-1. The experiment can be described thus: Antiproliferative activity against human PANC-1 cells assessed as inhibition of cell growth incubated for 24 to 72 hrs by MTT assay. It is filed as functional, cell-based.
Another experiment concerns BGC-823. In words: Antiproliferative activity against human BGC-823 cells assessed as inhibition of cell growth incubated for 24 to 72 hrs by MTT assay. It is filed as functional, cell-based.
The test system of the next experiment is HGC-27. The experiment can be described thus: Antiproliferative activity against human HGC-27 cells assessed as inhibition of cell growth incubated for 24 to 72 hrs by MTT assay. The format is functional, cell-based.
The subject of the next experiment is DU-145. In words: Antiproliferative activity against human DU-145 cells assessed as inhibition of cell growth incubated for 24 to 72 hrs by MTT assay. The format is functional, cell-based.
For a further experiment, the system named is CAPAN-1. The experiment can be described thus: Antiproliferative activity against human CAPAN-1 cells assessed as inhibition of cell growth incubated for 24 to 72 hrs by MTT assay. It is filed as functional, cell-based.
For experiment [16], the target named is T1, Epidermal growth factor receptor. In words: Inhibition of EGFR (unknown origin) phosphorylation by ELISA.
Experiment [17] deals with Tubulin beta. In words: Inhibition of beta-tubulin polymerization (unknown origin) measured every 3 secs for 1 hr by spectrofluorometer. The format is protein assay, Homo sapiens.

T1 sequence (P00533 whole entry, the tested form may be a part): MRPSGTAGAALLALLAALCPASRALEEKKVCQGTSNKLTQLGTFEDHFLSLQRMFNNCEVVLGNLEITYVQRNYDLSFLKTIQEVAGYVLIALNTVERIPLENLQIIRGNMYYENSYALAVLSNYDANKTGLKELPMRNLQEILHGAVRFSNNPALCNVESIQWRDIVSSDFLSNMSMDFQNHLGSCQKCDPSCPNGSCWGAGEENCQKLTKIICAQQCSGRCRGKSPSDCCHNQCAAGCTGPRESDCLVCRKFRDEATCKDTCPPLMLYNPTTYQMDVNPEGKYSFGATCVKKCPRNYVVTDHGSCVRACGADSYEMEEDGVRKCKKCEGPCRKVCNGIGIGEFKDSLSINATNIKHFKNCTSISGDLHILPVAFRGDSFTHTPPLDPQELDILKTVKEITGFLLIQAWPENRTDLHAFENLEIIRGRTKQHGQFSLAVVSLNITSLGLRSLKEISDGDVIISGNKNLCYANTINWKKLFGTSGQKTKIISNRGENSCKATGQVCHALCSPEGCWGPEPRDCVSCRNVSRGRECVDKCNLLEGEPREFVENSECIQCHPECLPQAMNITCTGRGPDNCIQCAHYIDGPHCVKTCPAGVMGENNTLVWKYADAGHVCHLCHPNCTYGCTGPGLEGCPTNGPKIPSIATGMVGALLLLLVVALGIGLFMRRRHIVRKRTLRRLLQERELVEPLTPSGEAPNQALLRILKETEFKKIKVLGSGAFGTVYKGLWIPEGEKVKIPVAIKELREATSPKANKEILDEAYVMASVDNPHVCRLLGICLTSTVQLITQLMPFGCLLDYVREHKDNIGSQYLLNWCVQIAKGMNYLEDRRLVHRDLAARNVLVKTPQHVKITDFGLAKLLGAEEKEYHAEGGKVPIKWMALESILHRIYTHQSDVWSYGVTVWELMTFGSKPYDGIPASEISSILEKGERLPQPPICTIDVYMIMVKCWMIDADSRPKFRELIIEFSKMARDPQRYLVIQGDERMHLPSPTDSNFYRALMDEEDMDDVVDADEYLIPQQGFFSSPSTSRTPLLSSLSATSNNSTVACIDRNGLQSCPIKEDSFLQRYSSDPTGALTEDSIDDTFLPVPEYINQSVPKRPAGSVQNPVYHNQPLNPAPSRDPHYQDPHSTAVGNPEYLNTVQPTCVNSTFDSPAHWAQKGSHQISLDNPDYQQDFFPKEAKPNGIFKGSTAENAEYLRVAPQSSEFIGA
Histone deacetylase 1, sequence (Q13547 whole entry): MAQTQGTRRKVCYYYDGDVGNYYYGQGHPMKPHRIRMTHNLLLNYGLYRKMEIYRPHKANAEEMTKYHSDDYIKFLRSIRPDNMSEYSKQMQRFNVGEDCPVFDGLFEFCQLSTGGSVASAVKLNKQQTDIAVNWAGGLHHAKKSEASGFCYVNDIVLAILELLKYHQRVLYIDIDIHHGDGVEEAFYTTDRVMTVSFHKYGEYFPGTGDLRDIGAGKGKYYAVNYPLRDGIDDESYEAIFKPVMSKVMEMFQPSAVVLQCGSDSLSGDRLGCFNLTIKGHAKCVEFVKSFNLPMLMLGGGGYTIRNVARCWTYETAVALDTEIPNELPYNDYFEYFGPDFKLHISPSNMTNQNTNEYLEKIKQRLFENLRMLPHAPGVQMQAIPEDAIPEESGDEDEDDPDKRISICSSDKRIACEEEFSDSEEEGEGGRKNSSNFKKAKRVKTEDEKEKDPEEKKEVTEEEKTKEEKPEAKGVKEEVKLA
Tyrosine-protein kinase JAK2, sequence (O60674 whole entry): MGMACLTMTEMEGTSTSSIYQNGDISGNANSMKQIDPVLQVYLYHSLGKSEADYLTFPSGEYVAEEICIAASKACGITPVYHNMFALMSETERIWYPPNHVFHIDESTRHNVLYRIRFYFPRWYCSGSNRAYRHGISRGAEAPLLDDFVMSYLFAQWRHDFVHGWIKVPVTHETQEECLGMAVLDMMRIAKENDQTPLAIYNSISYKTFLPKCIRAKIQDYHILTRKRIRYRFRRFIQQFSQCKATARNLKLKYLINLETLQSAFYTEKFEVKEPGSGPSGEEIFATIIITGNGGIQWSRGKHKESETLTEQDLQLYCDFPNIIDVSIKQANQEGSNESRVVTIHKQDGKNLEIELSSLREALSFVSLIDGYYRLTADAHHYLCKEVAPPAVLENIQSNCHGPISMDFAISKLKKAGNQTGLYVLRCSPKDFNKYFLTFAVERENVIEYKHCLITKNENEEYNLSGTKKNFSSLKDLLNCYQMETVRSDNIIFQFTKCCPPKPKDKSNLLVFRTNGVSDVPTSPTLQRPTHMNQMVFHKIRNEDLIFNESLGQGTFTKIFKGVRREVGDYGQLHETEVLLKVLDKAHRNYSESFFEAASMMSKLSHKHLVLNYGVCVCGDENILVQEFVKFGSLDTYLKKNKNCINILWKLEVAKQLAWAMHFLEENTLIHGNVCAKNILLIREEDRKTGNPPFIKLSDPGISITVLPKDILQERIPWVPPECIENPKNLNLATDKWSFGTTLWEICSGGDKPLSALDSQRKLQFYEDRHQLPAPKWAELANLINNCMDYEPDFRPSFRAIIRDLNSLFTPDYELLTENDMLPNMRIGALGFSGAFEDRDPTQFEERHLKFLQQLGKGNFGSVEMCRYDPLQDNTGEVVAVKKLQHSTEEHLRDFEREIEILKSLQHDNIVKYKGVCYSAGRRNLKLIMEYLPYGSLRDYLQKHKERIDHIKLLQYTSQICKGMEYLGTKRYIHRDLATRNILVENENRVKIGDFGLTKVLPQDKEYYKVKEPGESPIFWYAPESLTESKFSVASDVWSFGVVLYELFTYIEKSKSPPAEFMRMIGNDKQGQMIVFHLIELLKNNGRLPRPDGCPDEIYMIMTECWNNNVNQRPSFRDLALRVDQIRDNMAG
DNA topoisomerase 2-alpha, sequence (P11388 whole entry): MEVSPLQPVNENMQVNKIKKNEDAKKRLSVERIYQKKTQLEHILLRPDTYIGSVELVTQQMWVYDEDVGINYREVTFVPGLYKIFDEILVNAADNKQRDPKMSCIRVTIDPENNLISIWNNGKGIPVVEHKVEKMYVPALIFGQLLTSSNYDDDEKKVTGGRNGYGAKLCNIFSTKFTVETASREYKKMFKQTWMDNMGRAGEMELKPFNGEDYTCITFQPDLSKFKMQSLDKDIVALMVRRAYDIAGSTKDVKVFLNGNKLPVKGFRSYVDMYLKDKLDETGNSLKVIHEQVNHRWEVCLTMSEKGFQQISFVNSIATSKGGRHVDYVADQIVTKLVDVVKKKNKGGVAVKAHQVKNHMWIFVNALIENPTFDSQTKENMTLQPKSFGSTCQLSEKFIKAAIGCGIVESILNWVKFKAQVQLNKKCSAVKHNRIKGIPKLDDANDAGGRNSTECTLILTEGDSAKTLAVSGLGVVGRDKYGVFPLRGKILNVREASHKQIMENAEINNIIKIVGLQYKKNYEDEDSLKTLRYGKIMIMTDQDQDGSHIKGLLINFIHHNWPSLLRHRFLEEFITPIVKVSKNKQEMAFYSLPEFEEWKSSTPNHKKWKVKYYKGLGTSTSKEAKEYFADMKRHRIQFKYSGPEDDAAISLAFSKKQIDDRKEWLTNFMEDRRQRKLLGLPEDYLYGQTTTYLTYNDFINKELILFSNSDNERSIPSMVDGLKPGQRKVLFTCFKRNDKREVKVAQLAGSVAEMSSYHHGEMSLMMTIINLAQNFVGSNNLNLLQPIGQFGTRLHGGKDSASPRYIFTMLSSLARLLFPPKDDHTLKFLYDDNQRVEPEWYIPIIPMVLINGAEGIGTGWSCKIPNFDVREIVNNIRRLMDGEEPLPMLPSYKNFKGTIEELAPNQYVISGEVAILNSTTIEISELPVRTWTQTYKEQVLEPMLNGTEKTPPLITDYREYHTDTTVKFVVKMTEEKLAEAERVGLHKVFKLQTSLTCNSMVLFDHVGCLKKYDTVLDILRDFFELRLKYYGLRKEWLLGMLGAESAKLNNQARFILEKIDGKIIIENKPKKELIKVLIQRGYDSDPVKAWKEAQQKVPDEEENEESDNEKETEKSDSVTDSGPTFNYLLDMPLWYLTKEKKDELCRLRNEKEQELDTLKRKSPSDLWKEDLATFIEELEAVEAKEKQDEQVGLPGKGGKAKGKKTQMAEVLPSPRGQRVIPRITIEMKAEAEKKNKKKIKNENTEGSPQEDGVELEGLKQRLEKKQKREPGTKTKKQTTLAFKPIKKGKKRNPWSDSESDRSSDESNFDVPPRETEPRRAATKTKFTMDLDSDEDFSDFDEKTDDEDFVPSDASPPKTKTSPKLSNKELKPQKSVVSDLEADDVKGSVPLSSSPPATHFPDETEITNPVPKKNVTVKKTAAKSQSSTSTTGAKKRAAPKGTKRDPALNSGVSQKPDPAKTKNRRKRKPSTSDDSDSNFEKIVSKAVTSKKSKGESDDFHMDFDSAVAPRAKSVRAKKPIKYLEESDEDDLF
[Pyruvate dehydrogenase (acetyl-transferring)] kinase isozyme 1, mitochondrial, sequence (Q15118 whole entry): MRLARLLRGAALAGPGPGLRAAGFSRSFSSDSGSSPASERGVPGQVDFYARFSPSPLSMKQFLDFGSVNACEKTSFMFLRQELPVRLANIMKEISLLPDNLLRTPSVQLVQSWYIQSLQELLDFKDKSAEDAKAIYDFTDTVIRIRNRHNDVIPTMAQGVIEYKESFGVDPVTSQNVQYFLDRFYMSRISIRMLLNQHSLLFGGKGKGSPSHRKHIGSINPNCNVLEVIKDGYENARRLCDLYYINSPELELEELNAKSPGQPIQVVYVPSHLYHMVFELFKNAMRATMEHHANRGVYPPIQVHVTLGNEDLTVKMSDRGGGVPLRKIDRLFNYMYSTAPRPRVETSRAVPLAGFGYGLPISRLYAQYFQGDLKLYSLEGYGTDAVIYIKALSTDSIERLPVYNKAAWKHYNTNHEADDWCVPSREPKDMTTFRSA

In the case of `COc1ccc(NC(=O)c2c(Nc3ccccc3)sc(C(=O)N/N=C/c3ccc(O)c(O)c3)c2NC(C)=O)cc1`, in [1], the pIC50 (in general, −log10 of the IC50, conventionally taken in molar units) is 5.89. Further, the inhibition (as a rule, the drop in the measured response relative to a control, in per cent) in [2] is 86%.

For the compound `CCc1nnc2c(Nc3ccc(C(=O)/C=C/c4cc(OC)c(OC)c(OC)c4)cc3)nc3ccccc3n12`, the pIC50 in experiment [3] is 7.03. In addition, the half-inhibitory concentration (IC50) (as a rule, the concentration that gives 50% inhibition) on Tubulin beta [4] was 8400 nM.

`O=[N+]([O-])OCCCOc1ccc(Nc2ncnc3c2cnn3-c2ccc(Br)cc2)cc1` showed a pIC50 in [5] of 5.52.

Consider `CS(=O)(=O)Nc1ccc(-c2ccnc(Nc3ccc(N4CCC(CCc5ccc(/C=C/CC(=O)NO)cc5)CC4)cc3)n2)cc1`, for which the negative logarithm of the IC50 (pIC50) in [6] is 7.34; in experiment [7] it was 8.10.

`Cc1cc(NC2=NC(=O)/C(=C/c3c4ccccc4cc4ccccc34)S2)no1` had a negative-log IC50 (pIC50) in experiment [5] of 7.35.

With `COc1ccc(C(=O)c2cc(OC)c(OC)c(OC)c2)cc1OC(=O)C(Cl)Cl`, the results for the negative logarithm of the IC50 (pIC50) in experiment [8] and in [9] were 6.59 and 4.92, respectively.

The compound `O=C(Nc1ccccc1C(=O)N/N=C/c1ccc(O)cc1O)c1ccco1` had an IC50 against Tubulin beta [10] of 108.4 nM.

As for `C=C[C@]1(C)CC[C@@H](C(=C)COC(=O)CCC(=O)CCCOc2no[n+]([O-])c2S(=O)(=O)c2ccccc2)C[C@H]1C(=C)C`, the negative logarithm of the IC50 (pIC50) in experiment [11] was 8.70.

On to `O=C(CCCCCn1cc(-c2ccc3ncnc(Nc4ccc(Br)cc4F)c3c2)nn1)NO`, for which the pIC50 was 7.99 in [5]; 8.96 on Histone deacetylase 1; 8.37 in experiment [6]; 6.59 with A-431; 6.04 in the experiment on NCI-H1975.

Regarding `COc1ccc(CNc2nc3ccccc3c(NCc3ccc(OC)cc3)c2[N+](=O)[O-])cc1`, the figures for the pIC50 (in [12]; in the experiment on A549) were 6.66 and 5.19, respectively.

`CN1CCN(c2cc3c(cc2F)C(=O)C(/C=C2\CN(C4CC4)c4cc(N5CCNCC5)c(F)cc4C2=O)CN3C2CC2)CC1` (stereo not given): the pIC50 in experiment [13] was 5.80; in [14], 6.19; in [15] it was 5.51; in the experiment on T-24, 6.51; with PANC-1 it was 6.51; with BGC-823 it was 6.51. Moreover, the negative logarithm of the IC50 (pIC50) with HGC-27, in the experiment on DU-145 and in the experiment on CAPAN-1 was 6.51 each time.

As for `O=C(/C=C/c1ccc(F)cc1)c1cc(Br)cc2cc(-c3ccccc3)oc12`, the negative-log IC50 (pIC50) in experiment [16] is 7.05. Also, on Tubulin beta [17], the concentration for half-maximal inhibition (IC50) came out at 5510 nM.
